Experimental data reported in patent publication US6107310A, “Heteroarylcarboxamide derivatives for treating CNS disorders” (Knoll Aktiengesellschaft, priority 1995, dated 2000).
Where a name gives a salt, the structure may show the parent alone.

What was measured:
Design in all cases: species or system rat (male Charles River CD)
5-HT1A receptors = biological target: T1, 5-HT1A receptors (Rattus norvegicus, UniProt P19327); experiment: inhibition of [3H]8-OH-DPAT binding to 5-HT1A receptors in rat hippocampal tissue; conditions: rat hippocampus
T1 construct: Hippocampal tissue from the brains of male Charles River CD rats; from tissue; host or cells: rat hippocampus (male Charles River CD rats), membrane preparation
T1 sequence (P19327 1-422): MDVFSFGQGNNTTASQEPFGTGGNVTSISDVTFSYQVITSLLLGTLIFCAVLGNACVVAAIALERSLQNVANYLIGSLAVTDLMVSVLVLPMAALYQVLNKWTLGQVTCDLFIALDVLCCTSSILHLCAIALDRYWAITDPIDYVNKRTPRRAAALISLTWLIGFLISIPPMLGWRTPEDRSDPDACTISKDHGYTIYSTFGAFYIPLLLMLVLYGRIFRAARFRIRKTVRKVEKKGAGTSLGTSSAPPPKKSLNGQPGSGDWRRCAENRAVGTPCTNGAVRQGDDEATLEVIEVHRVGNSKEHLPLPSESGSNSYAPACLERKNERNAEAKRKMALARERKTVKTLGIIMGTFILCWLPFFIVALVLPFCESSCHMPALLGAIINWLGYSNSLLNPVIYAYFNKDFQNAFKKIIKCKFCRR
Procedure: Hippocampal tissue from the brains of male Charles River CD rats weighing between 150-250 g were homogenised in ice-cold 50 mM Tris-HCI buffer (pH 7.7) when measured at 25° C., 1:40 w/v) and centrifuged at 30,000 g at 4° C. for 10 minutes. The pellet was rehomogenised in the same buffer, incubated at 37° C. for 10 minutes and centrifuged at 30,000 g at 4° C. for 10 minutes. The final pellet was resuspended in 50 mM Tris-HCl buffer (pH 7.7) containing 4 mM CaCl2, 0.1% L-ascorbic acid and 10 μM pargyline hydrochloride (equivalent to 6.25 mg wet weight of tissue/ml) and used immediately in the binding assay. […]
(§1) The filters were washed with ice-cold Tris-HCl buffer and dried. The filters were punched out into vials, scintillation fluid added and radioactivity determined by liquid scintillation counting. The percentage displacement of specific binding of the tritiated ligand was calculated for the single concentration (10^-6 M) of test compound. […] The inhibition coefficient Ki was then calculated using the formula [formula] in which [ligand] is the concentration of the tritiated ligand used and KD is the equilibrium dissociation constant for the ligand.

[1] = biological target: T2, D2-like dopamine receptors (Rattus norvegicus, UniProt P61169); experiment: inhibition of tritiated (S)-sulpiride binding to D2-like dopamine receptors in rat striatal tissue; conditions: rat striatum
T2 construct: Striatal tissue from the brains of male Charles River CD rats; from tissue; host or cells: rat striatum (male Charles River CD rats), membrane preparation
Procedure: Striatal tissue from the brains of male Charles River CD rats weighing between 140-250 g were homogenised in ice-cold 50 mM Tris-HCl buffer (pH 7.7 when measured at 25° C.) and centrifuged at 40,000 g for 10 minutes. The pellet was resuspended in Tris salts buffer (50 mM Tris-HCl buffer containing 120 mM NaCl, 5 mM KCl, 2 mM CaCl2 and 1 mM MgCl2 with the addition of 6 mM ascorbic acid; pH 7.7 when measured at 25° C.), and again centrifuged at 40,000 g for 10 minutes. The final pellet was stored at -80° C. Before each test the pellet was resuspended in Tris salts buffer (equivalent to 2 mg wet weight of tissue/ml). […]
as §1, with “in to” for “into”, “were left for about 20 hours before being counted” for “radioactivity determined”, “by” for “by liquid”, “spectrophotometry.” for “counting.”

α1-adrenoceptors = experiment: inhibition of [7-methoxy-3H]prazosin binding to α1-adrenoceptors in rat whole cortical tissue; conditions: rat cortex
Procedure: Whole cortical tissue from the brains of male Charles River CD rats weighing between 150-250 g were homogenised in ice-cold 50 mM Tris-HCl, pH 7.6 (at 25° C.; 1:40 w/v) and centrifuged at 1000 g at 4° C. for 10 minutes. The supernatant was centrifuged at 30,000 g at 4° C. for 10 minutes. The pellet was rehomogenised in 50 mM Tris-HCl, pH 7.6 (1:40 w/v) and centrifuged at 30,000 g at 4° C. for 10 minutes. The final pellet was resuspended in 50 mM Tris-HCl, pH 7.6 (equivalent to 12.5 mg wet weight of tissue/ml) and used immediately in the binding assay. […]
as §1

T2 sequence (P61169 whole entry): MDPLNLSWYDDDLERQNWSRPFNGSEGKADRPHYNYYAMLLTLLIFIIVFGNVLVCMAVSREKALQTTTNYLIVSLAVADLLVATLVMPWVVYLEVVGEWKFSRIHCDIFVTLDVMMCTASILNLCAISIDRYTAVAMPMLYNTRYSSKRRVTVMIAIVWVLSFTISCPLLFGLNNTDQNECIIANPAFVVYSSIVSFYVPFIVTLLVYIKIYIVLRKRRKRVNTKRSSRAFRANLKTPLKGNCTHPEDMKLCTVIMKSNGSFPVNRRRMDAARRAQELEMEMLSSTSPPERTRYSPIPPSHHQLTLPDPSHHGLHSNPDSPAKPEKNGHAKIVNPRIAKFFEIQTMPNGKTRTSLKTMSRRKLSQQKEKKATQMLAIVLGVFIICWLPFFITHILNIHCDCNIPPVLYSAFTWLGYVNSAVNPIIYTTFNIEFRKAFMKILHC

Row | SMILES | Ki (5-HT1A receptors; [3H]8-OH-DPAT 2 nM, 25° C., 30 minutes) | Ki ([1]; tritiated (S)-sulpiride 1 nM, 4° C., 40 minutes) | Ki (α1-adrenoceptors; [7-methoxy-3H]prazosin 0.1 nM, 30° C., 30 minutes) | inhibition at 1 µM (5-HT1A receptors; 10^-6 M, [3H]8-OH-DPAT, read-out: % displacement at 10^-6 M (5-HT1A)) | inhibition at 1 µM ([1]; 10^-6 M, tritiated (S)-sulpiride, read-out: % displacement at 10^-6 M (D2-like)) | % displacement at 10^-6 M (α1) (α1-adrenoceptors; 10^-6 M, [7-methoxy-3H]prazosin, 30 min, 1 µM)
1 | Nc1ncccc1C(=O)NCC1CCN(C[C@H]2COc3ccc4[nH]ccc4c3O2)CC1 [Example 1, (S)-2-amino-N-{[1-(2,3-dihydro-7H-1,4-dioxino[2,3-e]indol-2-ylmethyl)-4-piperidyl]methyl}pyridine-3-carboxamide] | 3.1 nM | 7.6 nM | 12.4 nM | – | – | –
2 | O=C(NCC1CCN(C[C@H]2COc3ccc4[nH]ccc4c3O2)CC1)c1ccccn1 [Example 2, (S)-N-{[1-(2,3-dihydro-7H-1,4-dioxino[2,3-e]indol-2-ylmethyl)-4-piperidyl]methyl}pyridine-2-carboxamide 1.3 fumarate, 0.25 diethyl ether, 1.0 hydrate] | – | – | – | 99% | 122% | 93%
